The record followed here is patent publication US8975398B2, “NAMPT inhibitors” (AbbVie Inc., priority 2012, dated 2015).

Structures are written as SMILES. Where only a bound is given, the exact number is not on record here.

The test system of the experiment is PC3 cells. Description: NAMPT Cell Proliferation Assay (Cell Titer Glo; also performed in the presence of 0.3 mM nicotinamide mononucleotide). The format is cell-based. To be noted: Homo sapiens, PC-3, 120 h, 5 days incubation, cell viability by Cell Titer Glo. How it is done:
NAMPT Cell Proliferation Assay
PC3 cells were seeded in 96-well black plates (Corning #3904) at 500 cells/well in 90 μl of RPMI media containing 10% heat-inactivated FBS and incubated overnight at 37° C. and 5% CO2 to allow cells to attach to wells. The following day, test compounds were serially diluted in neat DMSO to 1000× final concentrations prior to dilution with RPMI media to 10× and 1% DMSO. Ten μL of the 10× compounds were then transferred to wells containing cells to produce a dose response of 10-fold dilutions from 10 μM to 1×10^−5 μM. Cells were incubated for 5 days at 37° C. and 5% CO2, then cell viability was measured using Cell Titer Glo reagent (Promega #G7571). Percent inhibition values were calculated and fitted to a sigmoidal dose response curves using Assay Explorer software to determine IC50s.
For orientation: ATP-based viability assays read luminescence as a measure of living cells.
One may read the IC50 as the point on the concentration scale where inhibition reaches its midpoint. On to `Cn1nc(C(F)(F)F)cc1-c1ccc(NC(=O)C2CN(c3cccnn3)C2)cc1` [Example 874, N-{4-[1-methyl-3-(trifluoromethyl)-1H-pyrazol-5-yl]phenyl}-1-(pyridazin-3-yl)azetidine-3-carboxamide], for which the IC50 is 71.1 nM. For `CC(C)(C)Cn1cc(-c2ccc(NC(=O)C3CN(c4ccc(Cl)nn4)C3)cc2)cn1` [Example 875, 1-(6-chloropyridazin-3-yl)-N-{4-[1-(2,2-dimethylpropyl)-1H-pyrazol-4-yl]phenyl}azetidine-3-carboxamide], the IC50 was above 10000 nM. As to `Cc1ccc(N2CC(C(=O)Nc3ccc(C4CCN(C(=O)c5ccccc5)CC4)cc3)C2)cn1` [Example 876, N-[4-(1-benzoylpiperidin-4-yl)phenyl]-1-(6-methylpyridin-3-yl)azetidine-3-carboxamide], the IC50 came to 29.2 nM. Then `CC1(Cn2cc(-c3ccc(NC(=O)C4CN(c5cccnc5)C4)cc3)cn2)CCNCC1` [Example 877, N-(4-{1-[(4-methylpiperidin-4-yl)methyl]-1H-pyrazol-4-yl}phenyl)-1-(pyridin-3-yl)azetidine-3-carboxamide], with 29.6 nM. The result for `Cc1ccc(N2CC(C(=O)Nc3ccc(-c4cnn(CC(C)(C)C)c4)cc3)C2)nn1` [Example 878, N-{4-[1-(2,2-dimethylpropyl)-1H-pyrazol-4-yl]phenyl}-1-(6-methylpyridazin-3-yl)azetidine-3-carboxamide] reads 70.6 nM. In the case of `O=C(Nc1ccc(C2CCN(C(=O)c3cccc(F)c3)CC2)c(F)c1)C1CN(c2cccnn2)C1` [Example 879, N-{3-fluoro-4-[1-(3-fluorobenzoyl)piperidin-4-yl]phenyl}-1-(pyridazin-3-yl)azetidine-3-carboxamide], the IC50 came to 5.83 nM.

For the compound `CC(C)C(=O)N1CCC(c2ccc(NC(=O)C3CN(c4cccnn4)C3)cc2F)CC1` [Example 880, N-{3-fluoro-4-[1-(2-methylpropanoyl)piperidin-4-yl]phenyl}-1-(pyridazin-3-yl)azetidine-3-carboxamide], the IC50 is 15.4 nM.

For the compound `O=C(Nc1ccc(C2CCN(C(=O)CC(F)(F)F)CC2)c(F)c1)C1CN(c2cccnn2)C1` [Example 881, N-{3-fluoro-4-[1-(3,3,3-trifluoropropanoyl)piperidin-4-yl]phenyl}-1-(pyridazin-3-yl)azetidine-3-carboxamide], the concentration for half-maximal inhibition (IC50) turned out to be 8.18 nM.

Take `CC(C)(C)CC(=O)N1CCC(c2ccc(NC(=O)C3CN(c4cccnn4)C3)cc2F)CC1` [Example 882, N-{4-[1-(3,3-dimethylbutanoyl)piperidin-4-yl]-3-fluorophenyl}-1-(pyridazin-3-yl)azetidine-3-carboxamide]: the concentration for half-maximal inhibition (IC50) stood at 6.43 nM. Then `O=C(Nc1ccc(C2CCN(C(=O)CCC(F)(F)F)CC2)c(F)c1)C1CN(c2cccnn2)C1` [Example 883, N-{3-fluoro-4-[1-(4,4,4-trifluorobutanoyl)piperidin-4-yl]phenyl}-1-(pyridazin-3-yl)azetidine-3-carboxamide], with 30.9 nM; and `O=C(Nc1ccc(C2CCN(C(=O)c3ccccc3)CC2)c(F)c1)C1CN(c2cccnn2)C1` [Example 884, N-[4-(1-benzoylpiperidin-4-yl)-3-fluorophenyl]-1-(pyridazin-3-yl)azetidine-3-carboxamide], with 2.75 nM.

Regarding `O=C(Nc1ccc(C2CCN(C(=O)c3ccccc3F)CC2)c(F)c1)C1CN(c2cccnn2)C1` [Example 885, N-{3-fluoro-4-[1-(2-fluorobenzoyl)piperidin-4-yl]phenyl}-1-(pyridazin-3-yl)azetidine-3-carboxamide], the IC50 worked out at 1.63 nM. The result for `CC(C)(C)C(=O)N1CCC(c2ccc(NC(=O)C3CN(c4cccnn4)C3)cc2F)CC1` [Example 886, N-{4-[1-(2,2-dimethylpropanoyl)piperidin-4-yl]-3-fluorophenyl}-1-(pyridazin-3-yl)azetidine-3-carboxamide] reads 7.66 nM; that for `CC(C)CC(=O)N1CCC(c2ccc(NC(=O)C3CN(c4cccnn4)C3)cc2F)CC1` [Example 887, N-{3-fluoro-4-[1-(3-methylbutanoyl)piperidin-4-yl]phenyl}-1-(pyridazin-3-yl)azetidine-3-carboxamide], 8.47 nM; that for `O=C(Nc1ccc(C2CCN(C(=O)CC3CC3)CC2)c(F)c1)C1CN(c2cccnn2)C1` [Example 888, N-{4-[1-(cyclopropylacetyl)piperidin-4-yl]-3-fluorophenyl}-1-(pyridazin-3-yl)azetidine-3-carboxamide], 9.76 nM.

As for `O=C(Nc1ccc(C2(O)CCN(C(=O)c3ccccc3F)CC2)cc1)C1CN(c2cccnn2)C1` [Example 889, N-{4-[1-(2-fluorobenzoyl)-4-hydroxypiperidin-4-yl]phenyl}-1-(pyridazin-3-yl)azetidine-3-carboxamide], the IC50 was determined as 2.85 nM. The result for `CC(C)(C)C(=O)N1CCC(O)(c2ccc(NC(=O)C3CN(c4cccnn4)C3)cc2)CC1` [Example 890, N-{4-[1-(2,2-dimethylpropanoyl)-4-hydroxypiperidin-4-yl]phenyl}-1-(pyridazin-3-yl)azetidine-3-carboxamide] reads 4.09 nM; that for `Cc1ccc(N2CC(C(=O)Nc3ccc(-c4cnn(CC5(C)CCOCC5)c4)cc3)C2)nn1` [Example 891, 1-(6-methylpyridazin-3-yl)-N-(4-{1-[(4-methyltetrahydro-2H-pyran-4-yl)methyl]-1H-pyrazol-4-yl}phenyl)azetidine-3-carboxamide], 65.6 nM. The result for `Cc1ccc(N2CC[C@H](C(=O)Nc3ccc(C4CCN(C(=O)c5ccccc5F)CC4)cc3)C2)nn1` [Example 892, (3S)—N-{4-[1-(2-fluorobenzoyl)piperidin-4-yl]phenyl}-1-(6-methylpyridazin-3-yl)pyrrolidine-3-carboxamide] reads 146 nM; that for `Cc1ccc(N2CC[C@H](C(=O)Nc3ccc(C4CCN(C(=O)c5ccccc5)CC4)cc3)C2)nn1` [Example 893, (3S)—N-[4-(1-benzoylpiperidin-4-yl)phenyl]-1-(6-methylpyridazin-3-yl)pyrrolidine-3-carboxamide], 681 nM. Then `Cc1ccc(N2CC[C@H](C(=O)Nc3ccc(C4CCN(C(=O)C(C)(C)C)CC4)cc3)C2)nn1` [Example 894, (3S)—N-{4-[1-(2,2-dimethylpropanoyl)piperidin-4-yl]phenyl}-1-(6-methylpyridazin-3-yl)pyrrolidine-3-carboxamide], with 752 nM; and `O=C(Nc1ccc(CC2CCN(C(=O)c3ccccc3)CC2)cc1)C1CN(c2cccnn2)C1` [Example 895, N-{4[(1-benzoylpiperidin-4-yl)methyl]phenyl}-1-(pyridazin-3-yl)azetidine-3-carboxamide], with 2.15 nM; and `O=C(Nc1ccc(CC2CCN(C(=O)c3ccccc3F)CC2)cc1)C1CN(c2cccnn2)C1` [Example 896, N-(4-{[1-(2-fluorobenzoyl)piperidin-4-yl]methyl}phenyl)-1-(pyridazin-3-yl)azetidine-3-carboxamide], with 1.09 nM. Take `CC(C)(C)C(=O)N1CCC(Cc2ccc(NC(=O)C3CN(c4cccnn4)C3)cc2)CC1` [Example 897, N-(4-{[1-(2,2-dimethylpropanoyl)piperidin-4-yl]methyl}phenyl)-1-(pyridazin-3-yl)azetidine-3-carboxamide]: the IC50 stood at 1.56 nM. Take `CC(C)(C)CC(=O)N1CCC(Cc2ccc(NC(=O)C3CN(c4cccnn4)C3)cc2)CC1` [Example 898, N-(4-{[1-(3,3-dimethylbutanoyl)piperidin-4-yl]methyl}phenyl)-1-(pyridazin-3-yl)azetidine-3-carboxamide]: the IC50 stood at 0.851 nM.

Turning to `CCC(CC)C(=O)N1CCC(Cc2ccc(NC(=O)C3CN(c4cccnn4)C3)cc2)CC1` [Example 899, N-(4-{[1-(2-ethylbutanoyl)piperidin-4-yl]methyl}phenyl)-1-(pyridazin-3-yl)azetidine-3-carboxamide], the IC50 was found to be 0.401 nM.

Regarding `O=C(Nc1ccc(CC2CCN(C(=O)CCC(F)(F)F)CC2)cc1)C1CN(c2cccnn2)C1` [Example 900, 1-(pyridazin-3-yl)-N-(4-{[1-(4,4,4-trifluorobutanoyl)piperidin-4-yl]methyl}phenyl)azetidine-3-carboxamide], the IC50 is 2.24 nM. As to `CC(C)C(=O)N1CCC(Cc2ccc(NC(=O)C3CN(c4cccnn4)C3)cc2)CC1` [Example 901, N-(4-{[1-(2-methylpropanoyl)piperidin-4-yl]methyl}phenyl)-1-(pyridazin-3-yl)azetidine-3-carboxamide], the IC50 is 2.07 nM.

In the case of `CC(=O)N1CCC(Cc2ccc(NC(=O)C3CN(c4cccnn4)C3)cc2)CC1` [Example 902, N-{4-[(1-acetylpiperidin-4-yl)methyl]phenyl}-1-(pyridazin-3-yl)azetidine-3-carboxamide], the IC50 worked out at 6.45 nM. In the case of `CC[C@H](C)C(=O)N1CCC(Cc2ccc(NC(=O)C3CN(c4cccnn4)C3)cc2)CC1` [Example 903, N-[4-({1-[(2S)-2-methylbutanoyl]piperidin-4-yl}methyl)phenyl]-1-(pyridazin-3-yl)azetidine-3-carboxamide], the IC50 is 0.618 nM. Then `CC1(C(=O)N2CCC(Cc3ccc(NC(=O)C4CN(c5cccnn5)C4)cc3)CC2)CC1` [Example 904, N-[4-({1-[(1-methylcyclopropyl)carbonyl]piperidin-4-yl}methyl)phenyl]-1-(pyridazin-3-yl)azetidine-3-carboxamide], with 1.95 nM. Regarding `Cc1ccc(N2CC(C(=O)Nc3ccc(-c4cnn(CC5(C)CCN(C6COC6)CC5)c4)cc3)C2)nn1` [Example 905, N-[4-(1-{[4-methyl-1-(oxetan-3-yl)piperidin-4-yl]methyl}-1H-pyrazol-4-yl)phenyl]-1-(6-methylpyridazin-3-yl)azetidine-3-carboxamide], the IC50 is 13.3 nM.
